Laboratory results taken from article PMC3431801 (2012).

Legend:
Type in all cases: biochemical
PDE4D (PDE4) = PDE4D (PDE4) (Homo sapiens, UniProt Q08499); assay: recombinant PDE activity assay with [3H]cAMP
PDE1 = assay: recombinant PDE activity assay with [3H]cAMP, calmodulin and Ca2+
PDE3 = assay: recombinant PDE activity assay with [3H]cAMP

PDE4D (PDE4), sequence (Q08499 whole entry): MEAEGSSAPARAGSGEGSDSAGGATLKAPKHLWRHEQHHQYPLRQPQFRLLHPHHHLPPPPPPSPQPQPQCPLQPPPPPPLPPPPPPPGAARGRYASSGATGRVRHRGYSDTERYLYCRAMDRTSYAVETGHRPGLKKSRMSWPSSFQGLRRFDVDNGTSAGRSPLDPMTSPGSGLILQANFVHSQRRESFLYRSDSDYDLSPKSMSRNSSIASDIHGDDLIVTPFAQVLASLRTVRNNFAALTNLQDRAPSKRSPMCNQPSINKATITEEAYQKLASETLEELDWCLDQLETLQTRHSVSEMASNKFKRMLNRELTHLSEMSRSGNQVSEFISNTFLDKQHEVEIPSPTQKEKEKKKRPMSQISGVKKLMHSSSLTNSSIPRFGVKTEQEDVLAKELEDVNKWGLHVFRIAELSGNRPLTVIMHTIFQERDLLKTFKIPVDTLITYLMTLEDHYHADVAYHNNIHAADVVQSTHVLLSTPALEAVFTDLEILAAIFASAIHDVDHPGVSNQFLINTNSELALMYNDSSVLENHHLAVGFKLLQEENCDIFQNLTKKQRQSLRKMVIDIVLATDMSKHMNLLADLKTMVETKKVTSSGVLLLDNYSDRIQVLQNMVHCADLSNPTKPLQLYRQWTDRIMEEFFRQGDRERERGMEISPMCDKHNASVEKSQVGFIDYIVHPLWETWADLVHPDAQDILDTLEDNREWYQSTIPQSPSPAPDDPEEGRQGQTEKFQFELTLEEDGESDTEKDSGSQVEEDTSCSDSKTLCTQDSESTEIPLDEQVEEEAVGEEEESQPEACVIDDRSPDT

`Oc1ccc(/C=C/c2cc(O)cc(O)c2)cc1` [resveratrol] showed an IC50 (PDE4D (PDE4)) of ~14 µM, an IC50 (PDE1) of ~6 µM and an IC50 (PDE3) of ~10 µM.
